This note sets out measurements from PMC8119466, “A screen of FDA-approved drugs identifies inhibitors of protein tyrosine phosphatase 4A3 (PTP4A3 or PRL-3)” (Scientific Reports, 2021).

Structures can show the parent of a compound that is named as a salt. Where two headings read alike, the source gives them in different places.

Type in all cases: biochemical
One assay concerns the target T1, recombinant PRL-1 (Homo sapiens, UniProt Q93096).
T1 construct: 6xHis (N, cleaved yes); made in house; host or cells: E. coli One Shot BL21 Star
T1 sequence (Q93096 1-173): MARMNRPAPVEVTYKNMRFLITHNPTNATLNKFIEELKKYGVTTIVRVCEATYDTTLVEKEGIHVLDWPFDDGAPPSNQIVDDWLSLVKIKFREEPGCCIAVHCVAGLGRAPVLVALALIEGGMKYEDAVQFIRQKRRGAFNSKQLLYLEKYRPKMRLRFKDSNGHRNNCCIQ
As to the kind of experiment: In vitro phosphatase assay (DiFMUP hydrolysis), PRL-1. Note: test concentration or dose not given here.

A further assay addresses T2, recombinant PRL-2 (Homo sapiens, UniProt Q12974).
T2 construct: 6xHis (N, cleaved yes); made in house; host or cells: E. coli One Shot BL21 Star
T2 sequence (Q12974 1-167): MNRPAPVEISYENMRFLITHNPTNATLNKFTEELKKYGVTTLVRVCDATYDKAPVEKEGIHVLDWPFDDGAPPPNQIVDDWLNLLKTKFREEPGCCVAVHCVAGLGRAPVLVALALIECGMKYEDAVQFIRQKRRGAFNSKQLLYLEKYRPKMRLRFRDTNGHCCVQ
As to the kind of experiment: In vitro phosphatase assay (DiFMUP hydrolysis), PRL-2.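 Note: PRL-2 activity read as DiFMUP hydrolysis after 20 min at room temperature with drug, enzyme first pre-reduced at 4 °C for 20 min.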

Another assay concerns the target T3, recombinant PRL-3 (Homo sapiens, UniProt O75365).
T3 construct: 6xHis (N, cleaved yes); made in house; host or cells: E. coli One Shot BL21 Star
As to the kind of experiment: In vitro phosphatase assay (DiFMUP hydrolysis), PRL-3. Note: test concentration or dose not given here.

The mark [1] stands for this setting: FDA-approved drug screen, compared to DMSO.
[2] abbreviates: FDA-approved drug screen, activity compared to DMSO.

T3 sequence (O75365 whole entry): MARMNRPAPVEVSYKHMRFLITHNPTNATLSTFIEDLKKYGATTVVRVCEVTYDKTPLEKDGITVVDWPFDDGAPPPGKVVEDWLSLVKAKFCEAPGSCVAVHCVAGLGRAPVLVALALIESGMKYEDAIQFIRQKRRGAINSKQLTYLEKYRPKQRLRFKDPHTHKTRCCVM
Protocol for recombinant PRL-2: Briefly, protein was diluted in reaction buffer and allowed to incubate at 4 °C for 20 min to allow for full reduction of the active site. DiFMUP, drug, and protein were added, and plates were incubated for 20 min at room temperature. Fluorescence intensities were measured on a Cytation 5 plate reader (Biotek) at an EX:360 nm and EM:460 nm. […] Inhibition selectivity for PRLs over a panel of other phosphatases was determined using PhosphataseProfiler (Eurofins, Cat # PP260).

As for `COc1ccc(/C=C\c2cc(OC)c(OC)c(OC)c2)cc1OP(=O)([O-])[O-].[Na+].[Na+]`, the “% Phosphatase Activity (compared to DMSO) PRL-1” value at recombinant PRL-1 (setting [1]) stood at 88%. Moreover, on recombinant PRL-2 (setting [1]), the “% Phosphatase Activity (compared to DMSO) PRL-2” value is listed as 76%. Besides, at recombinant PRL-3 (setting [1]), the “% Phosphatase Activity (compared to DMSO) PRL-3” value is 109%.
For `CCCC(CCC)C(=O)[O-].[Na+]`, on recombinant PRL-1 (setting [2]), the “% Phosphatase Activity (compared to DMSO) PRL-1” value is 86%. Also, the “% Phosphatase Activity (compared to DMSO) PRL-2” value on recombinant PRL-2 (setting [2]) is recorded as 75%. Besides, the “% Phosphatase Activity (compared to DMSO) PRL-3” value at recombinant PRL-3 (setting [2]) came out at 77%.
Turning to `COc1cc(Nc2c(C#N)cnc3cc(OCCCN4CCN(C)CC4)c(OC)cc23)c(Cl)cc1Cl` [Bosutinib (SKI-606)], the “% Phosphatase Activity (compared to DMSO) PRL-1” value on recombinant PRL-1 (setting [1]) was determined as 94%. The “% Phosphatase Activity (compared to DMSO) PRL-3” value at recombinant PRL-3 (setting [1]) came to 82%.
Turning to `CCN(CC)CCCC(C)Nc1ccnc2cc(Cl)ccc12` (centres unmarked) [Chloroquine Phosphate], the “% Phosphatase Activity (compared to DMSO) PRL-1” value at recombinant PRL-1 (setting [1]) amounted to 104%. Further, on recombinant PRL-2 (setting [1]), the “% Phosphatase Activity (compared to DMSO) PRL-2” value amounted to 115%.
In the case of `CN/C(=N/CCSCc1nc[nH]c1C)NC#N` [Cimetidine], on recombinant PRL-1, the “% Phosphatase Activity (compared to DMSO) PRL-1” value is reported as 96%. Also, the “% Phosphatase Activity (compared to DMSO) PRL-3” value at recombinant PRL-3 was 112%.
Turning to `Cl.N=C(N=C(N)N)N1CCOCC1` [Moroxydine HCl], on recombinant PRL-2 (setting [1]), the “% Phosphatase Activity (compared to DMSO) PRL-2” value came to 102%. Moreover, the “% Phosphatase Activity (compared to DMSO) PRL-3” value at recombinant PRL-3 (setting [1]) is recorded as 79%.
In the case of `FC(F)(F)c1ccc(/C=C/c2nc(COc3ccc(CCCCn4ccnn4)cc3)co2)cc1` [Mubritinib (TAK 165)], on recombinant PRL-2, the “% Phosphatase Activity (compared to DMSO) PRL-2” value was 114%. In addition, the “% Phosphatase Activity (compared to DMSO) PRL-3” value on recombinant PRL-3 worked out at 101%.
As for `C=C1CC[C@@]2(O)[C@H]3Cc4ccc(O)c5c4[C@@]2(CCN3CC2CC2)[C@H]1O5` [Nalmefene HCl], at recombinant PRL-2 (setting [1]), the “% Phosphatase Activity (compared to DMSO) PRL-2” value turned out to be 102%. Also, on recombinant PRL-3 (setting [1]), the “% Phosphatase Activity (compared to DMSO) PRL-3” value is reported as 95%.
In the case of `C=CCN1CC[C@]23c4c5ccc(O)c4O[C@H]2C(=O)CC[C@@]3(O)[C@H]1C5` [Naloxone HCl], the “% Phosphatase Activity (compared to DMSO) PRL-1” value at recombinant PRL-1 (setting [1]) is given as 105%. In addition, the “% Phosphatase Activity (compared to DMSO) PRL-2” value on recombinant PRL-2 (setting [1]) came out at 123%.
With `Cl.O=C(O)/C=C/c1ccc(Cn2ccnc2)cc1` [Ozagrel HCl], on recombinant PRL-2 (setting [1]), the “% Phosphatase Activity (compared to DMSO) PRL-2” value is reported as 120%. The “% Phosphatase Activity (compared to DMSO) PRL-3” value on recombinant PRL-3 (setting [1]) was found to be 81%.
As to `CC(=O)O[C@H]1C[C@@H]2CC[C@@H]3[C@H](CC[C@@]4(C)[C@H]3C[C@H]([N+]3(C)CCCCC3)[C@@H]4OC(C)=O)[C@@]2(C)C[C@@H]1[N+]1(C)CCCCC1.[Br-].[Br-]` [Pancuronium dibromide], at recombinant PRL-2 (setting [1]), the “% Phosphatase Activity (compared to DMSO) PRL-2” value stood at 109%. Besides, at recombinant PRL-3 (setting [1]), the “% Phosphatase Activity (compared to DMSO) PRL-3” value is reported as 85%.
On to `Nc1nc2[nH]cc(CCc3ccc(C(=O)N[C@@H](CCC(=O)[O-])C(=O)[O-])cc3)c2c(=O)[nH]1.Nc1nc2[nH]cc(CCc3ccc(C(=O)N[C@@H](CCC(=O)[O-])C(=O)[O-])cc3)c2c(=O)[nH]1.O.O.O.O.O.[Na+].[Na+].[Na+].[Na+]` [Pemetrexed Disodium Hydrate], for which the “% Phosphatase Activity (compared to DMSO) PRL-2” value on recombinant PRL-2 (setting [1]) worked out at 101%. The “% Phosphatase Activity (compared to DMSO) PRL-3” value at recombinant PRL-3 (setting [1]) amounted to 108%.
Taken in the same sequence, the figures for `CC1(C)S[C@@H]2[C@H](NC(=O)Cc3ccccc3)C(=O)N2[C@H]1C(=O)O` [Penicillin G Sodium] were 105% and 75%.
For `CCOc1ccc(NC(C)=O)cc1` [Phenacetin], in that order: 114% and 81%.
As to `O=C1NC(=O)C(c2ccccc2)(c2ccccc2)N1` [Phenytoin], on recombinant PRL-1 (setting [1]), the “% Phosphatase Activity (compared to DMSO) PRL-1” value was 104%. For the same molecule, the “% Phosphatase Activity (compared to DMSO) PRL-3” value at recombinant PRL-3 (setting [1]) is on record as 84%.
Turning to `CC(C)N(CCNC(=O)CN1CCCC1=O)C(C)C` [Pramiracetam], the “% Phosphatase Activity (compared to DMSO) PRL-2” value on recombinant PRL-2 (setting [1]) amounted to 88%. For the same molecule, the “% Phosphatase Activity (compared to DMSO) PRL-3” value at recombinant PRL-3 (setting [1]) is recorded as 88%.
In the case of `CCc1nc(N)nc(N)c1-c1ccc(Cl)cc1` [Pyrimethamine], the “% Phosphatase Activity (compared to DMSO) PRL-2” value at recombinant PRL-2 (setting [1]) is recorded as 109%. Also, the “% Phosphatase Activity (compared to DMSO) PRL-3” value on recombinant PRL-3 (setting [1]) is listed as 89%.
As for `CN1[C@@H]2C[C@@H](OC(=O)[C@H](CO)c3ccccc3)C[C@H]1[C@@H]1O[C@@H]12` [Scopolamine HBr], the “% Phosphatase Activity (compared to DMSO) PRL-1” value at recombinant PRL-1 (setting [1]) amounted to 91%. The “% Phosphatase Activity (compared to DMSO) PRL-3” value at recombinant PRL-3 (setting [1]) is 77%.
For `Nc1ccc(S(=O)(=O)Nc2ncccn2)cc1` [Sulfadiazine], the “% Phosphatase Activity (compared to DMSO) PRL-1” value on recombinant PRL-1 was 105%. The “% Phosphatase Activity (compared to DMSO) PRL-3” value at recombinant PRL-3 is given as 103%.
As to `Cc1ccnc(NS(=O)(=O)c2ccc(N)cc2)n1` [Sulfamerazine], at recombinant PRL-2 (setting [2]), the “% Phosphatase Activity (compared to DMSO) PRL-2” value is on record as 108%. Further, the “% Phosphatase Activity (compared to DMSO) PRL-3” value on recombinant PRL-3 (setting [2]) worked out at 83%.
Taken in the same sequence, the figures for `Nc1ccc(S(N)(=O)=O)cc1` [Sulfanilamide] were 92% and 77%.
Turning to `Nc1c2c(nc3ccccc13)CCCC2` [Tacrine HCl], the “% Phosphatase Activity (compared to DMSO) PRL-2” value on recombinant PRL-2 is listed as 89%. The “% Phosphatase Activity (compared to DMSO) PRL-3” value on recombinant PRL-3 is listed as 89%.
For the molecule `CC/C(=C(\c1ccccc1)c1ccc(OCCN(C)C)cc1)c1ccccc1` [Tamoxifen], on recombinant PRL-2 (setting [2]), the “% Phosphatase Activity (compared to DMSO) PRL-2” value is 110%. In addition, the “% Phosphatase Activity (compared to DMSO) PRL-3” value at recombinant PRL-3 (setting [2]) worked out at 81%.
For `CN1CCC(COc2cnc(-c3cccc(Cn4nc(-c5cccc(C#N)c5)ccc4=O)c3)nc2)CC1` [Tepotinib (EMD 1214063)], in that order: 110% and 113%.
Consider `CN(C/C=C/C#CC(C)(C)C)Cc1cccc2ccccc12` [Terbinafine], for which the “% Phosphatase Activity (compared to DMSO) PRL-2” value at recombinant PRL-2 (setting [2]) turned out to be 122%. The “% Phosphatase Activity (compared to DMSO) PRL-3” value on recombinant PRL-3 (setting [2]) was determined as 84%.
For `CN1CCN(CCCN2c3ccccc3Sc3ccc(C(F)(F)F)cc32)CC1.Cl.Cl` [Trifluoperazine 2HCl], at recombinant PRL-1 (setting [2]), the “% Phosphatase Activity (compared to DMSO) PRL-1” value was 103%. The “% Phosphatase Activity (compared to DMSO) PRL-3” value on recombinant PRL-3 (setting [2]) stood at 100%.
On to `COc1cc(Cc2cnc(N)nc2N)cc(OC)c1OC` [Trimethoprim], for which the “% Phosphatase Activity (compared to DMSO) PRL-2” value on recombinant PRL-2 turned out to be 107%. Moreover, the “% Phosphatase Activity (compared to DMSO) PRL-3” value at recombinant PRL-3 was found to be 79%.
Consider `CN1[C@@H]2CC[C@H]1C[C@@H](OC(=O)c1c[nH]c3ccccc13)C2` [Tropisetron], for which the “% Phosphatase Activity (compared to DMSO) PRL-2” value at recombinant PRL-2 (setting [2]) came out at 100%. In addition, on recombinant PRL-3 (setting [2]), the “% Phosphatase Activity (compared to DMSO) PRL-3” value is 93%.
With `C[C@@H](c1ncncc1F)[C@](O)(Cn1cncn1)c1ccc(F)cc1F` [Voriconazole], the “% Phosphatase Activity (compared to DMSO) PRL-2” value on recombinant PRL-2 (setting [2]) stood at 92%. On recombinant PRL-3 (setting [2]), the “% Phosphatase Activity (compared to DMSO) PRL-3” value turned out to be 86%.
Take `OC[C@@H](O)[C@H](O)[C@@H](O)CO` [Xylitol]: at recombinant PRL-2 (setting [2]), the “% Phosphatase Activity (compared to DMSO) PRL-2” value came out at 99%. Further, at recombinant PRL-3 (setting [2]), the “% Phosphatase Activity (compared to DMSO) PRL-3” value amounted to 96%.
Turning to Bleomycin Sulfate, the “% Phosphatase Activity (compared to DMSO) PRL-2” value on recombinant PRL-2 (setting [1]) was found to be 100%. For the same molecule, at recombinant PRL-3 (setting [1]), the “% Phosphatase Activity (compared to DMSO) PRL-3” value was 64%.
For Colistin Sulfate, the “% Phosphatase Activity (compared to DMSO) PRL-1” value at recombinant PRL-1 (setting [1]) is listed as 91%. The “% Phosphatase Activity (compared to DMSO) PRL-3” value on recombinant PRL-3 (setting [1]) is 120%.
Take Gentamicin Sulfate: at recombinant PRL-1 (setting [1]), the “% Phosphatase Activity (compared to DMSO) PRL-1” value worked out at 95%. Besides, the “% Phosphatase Activity (compared to DMSO) PRL-2” value at recombinant PRL-2 (setting [1]) is given as 96%.
In the case of L-Adrenaline, the “% Phosphatase Activity (compared to DMSO) PRL-2” value on recombinant PRL-2 came to 98%. Moreover, at recombinant PRL-3, the “% Phosphatase Activity (compared to DMSO) PRL-3” value is recorded as 71%.
Regarding Maraviroc, the “% Phosphatase Activity (compared to DMSO) PRL-1” value at recombinant PRL-1 (setting [1]) is 82%. In addition, the “% Phosphatase Activity (compared to DMSO) PRL-3” value at recombinant PRL-3 (setting [1]) is on record as 93%.
Taken in the same sequence, the figures for Polymyxin B sulphate were 98% and 98%.
